In PubChem BioAssay AID1503 (Sanford-Burnham Center for Chemical Genomics, 2009) one finds MIC data, which are given here for eight molecules.

The term MIC denotes the lowest concentration that inhibits growth of the organism.

The structures appear in SMILES notation. Converted amounts (≈) assume the structure as drawn. The source made the active and inactive calls.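 The calls were made as follows: active = compounds whose lowest dose cutting E. coli growth over twofold at 37 C is below a set limit; inactive = the rest.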 Bounds are passed on as bounds.

The assay deals with E. coli growth, OD530, overnight, 37 C. The experiment in a line: E. coli growth inhibition, SAR follow-up, DnaK modulator project, MIC, 37 and 42 C (AID 1503).
[1] abbreviates: measured here: E. coli MIC at 42 C.

Turning to `O=C(NCc1ccccc1Br)c1cccs1`, the MIC was > 4000 µM (inactive).

`Cc1ccc(CNC(=O)c2ccc([N+](=O)[O-])o2)cc1`: the MIC was 250 µM (≈ 65.1 µg/mL). Under setting [1], this molecule registered an MIC of 250 µM (≈ 65.1 µg/mL).

Turning to `Cc1ccc(C(=O)NCc2ccc(F)cc2)o1`, the MIC is > 4000 µM (inactive).

In the case of `O=C(Nc1ccc2[nH]ccc2c1)c1cccs1`, the MIC is 400 µM (≈ 96.9 µg/mL). Under setting [1], the MIC stood at 400 µM (≈ 96.9 µg/mL).

For `Nc1ccc2c(ccn2C(=O)c2cccs2)c1`, the MIC was < 4000 µM (inactive). Also, the minimum inhibitory concentration (MIC) under setting [1] is > 4000 µM.

`CC(Cc1ccc(F)cc1)NC(=O)c1cccs1` (configuration not stated): the MIC is > 10000 µM (inactive). Further, the MIC under setting [1] is > 10000 µM.

`O=C(NCc1ccccc1F)c1cccs1`: the MIC was > 4000 µM (inactive).

As to `Cc1ccc(C(=O)NCc2ccc(Cl)cc2)o1`, the MIC is > 4000 µM (inactive).
